Reference: patent publication US4317917A, “Derivatives of methyl-substituted or methoxy-substituted 2-hydroxybenzoic acids, and pharmaceutical formulations containing them” (priority 1979, dated 1982)
Values after ≈ are worked out from the molar mass of the structure shown.

What was measured:
[1] = tested on: stomachs; test: Ulcerogenic action in the female Wistar rat; assay type: in vivo; conditions: four hours after treatment
Protocol: The ulcerogenic action of the product was evaluated in the female Wistar rat in comparison with that of other known antiinflammatory drugs.
The products were administered orally in a dose corresponding to about two fifths their LD50.
The animals were sacrificed four hours after treatment, and the stomachs examined to check any presence of ulcers.

[2] = tested on: Sarcina lutea; test: In vitro antibacterial activity, minimum inhibiting concentration (C.M.I.), Sarcina lutea; assay type: cell-based; conditions: Micrococcus luteus, Gram (+), Difco nutrient broth
Protocol: (§1) The antiseptic power of the substance under examination was evaluated by determining the minimum inhibiting concentration (C.M.I.) on a series of Gram negative and Gram positive germs related to the pathology of the respiratory tree.
(§2) The culture broth used was Difco nutrient broth, and 8 test samples were used for each concentration tested. Guaiacol was used as the comparison drug.

[3] = tested on: edema induced in the rear paw of the rat by carrageen; test: Antiinflammatory activity, edema by carrageen in the rear paw of the rat (method of Winter); assay type: in vivo, Wistar rat
Protocol: The antiinflammatory activity of AF1 was evaluated in comparison with that of a known drug (Tanderil®) by inhibiting the edema induced in the rear paw of the rat by carrageen. The method used is that described by Winter.
The substances examined were administered orally to Wistar rats having a body weight of 165±15 g.
The percentage edema inhibition for the various groups of animals was calculated by putting the average percentage increase of the control group equal to 100.

[4] = tested on: conjunctival sac of the eye of a rabbit; test: Local tolerability check, conjunctival sac of the rabbit eye; assay type: in vivo; conditions: 0.5 solution dropped into conjunctival sac
[5] = tested on: Micrococcus pyogenes; test: In vitro antibacterial activity, minimum inhibiting concentration (C.M.I.), Micrococcus pyogenes; assay type: cell-based; conditions: Staphylococcus aureus, Gram (+), Difco nutrient broth
Protocol: as §1, §2

[6] = tested on: tissues where the drug was introduced; test: Local tolerability check, intramuscular administration in the rat; assay type: in vivo; conditions: 60-120 mg/kg/die, 25 consecutive days
[7] = tested on: gastric or duodenal lesion; test: Gastric or duodenal lesions in mice treated for 5 consecutive days; assay type: in vivo; conditions: 200 mg/kg per day
[8] = tested on: painful reaction; test: Analgesic activity in the mouse (method of Ben Bassat and coll.); assay type: in vivo; conditions: 100 mg/kg oral
Protocol: The analgesic activity of the compound under examination was tested in the mouse by the method of Ben Bassat and coll. (Arch. Int. Pharmacodyn, 122, 434, 1954) and comparing the drug in question with Tanderil® (T).

[9] = Acute toxicity (LD50) in the Wistar rat; conditions: in vivo, seventh day
Protocol: (§3) Acute toxicity of the product was studied in the Swiss mouse and Wistar rat by oral and intraperitoneal administration. The substance was carried in 5% gum arabic for both methods of administration. The volumes inoculated for both methods of administration were 20 ml/kg of body weight for the mouse and 5 ml/kg for the rat. The LD50 values expressed in mg/kg were calculated on the seventh day of treatment by the probital analysis method.

[10] = Acute toxicity (LD50) in the Swiss mouse; conditions: in vivo, 95% reliability limits in brackets, seventh day
Protocol: as §3

[11] = tested on: Micrococcus tuberc. (bovis); test: In vitro antibacterial activity, minimum inhibiting concentration (C.M.I.), Micrococcus tuberc. (bovis); assay type: cell-based; conditions: read-out: Minimum inhibiting concentration
Protocol: as §1, §2

[12] = tested on: rat; test: Subacute toxicity in the rat by intramuscular administration; assay type: in vivo; conditions: 60 and 120 mg/kg/die, 25 consecutive days
Protocol: 2. Subacute toxicity in the rat by intramuscular administration
The test was carried out for 25 consecutive days using drug doses of 60 and 120 mg/kg/die.

[13] = tested on: Haemophilus influeniae; test: In vitro antibacterial activity, minimum inhibiting concentration (C.M.I.), Haemophilus influeniae; assay type: cell-based; conditions: Gram (-), Difco nutrient broth
Protocol: as §1, §2

[14] = tested on: Micrococcus catarrhalis; test: In vitro antibacterial activity, minimum inhibiting concentration (C.M.I.), Micrococcus catarrhalis; assay type: cell-based; conditions: Gram (-), Difco nutrient broth
Protocol: as §1, §2

[15] = tested on: edema induced by kaolin; test: Antiinflammatory activity, edema by kaolin, diameter of the tibiotarsal joint; assay type: in vivo, rat
Protocol: The antiedematous action of AF1 was also investigated by the test of Conbon and coll. (Arch.Int.Pharmacodyn. 99; 474, 1954), consisting of measuring the diameter of the tibiotarsal joint in both the rear paws of the rat. Groups of five animals representing controls and treated animals were used for two separate experiments. 0.2 ml of a sterile 10% kaolin suspension was injected directly into the joint of the two rear paws of each animal.
The joint diameter was measured one hour after the kaolin injection and then every 24 hours afterwards for five consecutive days. The AF1 compound was administered intraperitoneally in a quantity of 100 mg/kg one hour after the kaolin injection and at the same time on the following days over the entire test period.

[16] = day 1 after kaolin, 100 mg/kg/day intraperitoneally
[17] = day 2 after kaolin, 100 mg/kg/day intraperitoneally
[18] = day 3 after kaolin, 100 mg/kg/day intraperitoneally
[19] = day 4 after kaolin, 100 mg/kg/day intraperitoneally
[20] = day 5 after kaolin, 100 mg/kg/day intraperitoneally

For `COc1ccc2cc([C@H](C)C(=O)O)ccc2c1` [Naproxen, reference compound], the “No. of ulcerated animals/No. of treated animals” value ([1]; 200 mg/kg oral) was 5/10.

In the case of `Cc1ccc(OC(=O)C=Cc2ccccc2)c(C(=O)O)c1` [AF1, 2-(3-phenyl-2-propenoyloxy)-5-methylbenzoic acid], the MIC [2] was 9.15 mg/mL (≈ 32.4 mM), the “Percentage edema inhibition relative to the controls” value ([3]; 25 mg/kg oral, 4 hours) was 42% and the “Percentage edema inhibition relative to the controls” value ([3]; 25 mg/kg oral, 6 hours) was 71%. The “Percentage edema inhibition relative to the controls” value ([3]; 50 mg/kg oral, 4 hours) was 62%, the “Percentage edema inhibition relative to the controls” value ([3]; 50 mg/kg oral, 6 hours) was 84% and the “Percentage edema inhibition relative to the controls” value ([3]; 75 mg/kg oral, 4 hours) was 73%. The “Percentage edema inhibition relative to the controls” value ([3]; 75 mg/kg oral, 6 hours) was 87%, the “irritating or damaging modification to local tissues” value [4] was “no irritating or otherwise damaging modification to local tissues” and the MIC [5] was 16.6 mg/mL (≈ 58.8 mM). The “macroscopic change in the tissues where the drug was introduced” value [6] was “no macroscopic change in the tissues where the drug was introduced”, the “other undesirable local phenomena” value [6] was “neither were other undesirable local phenomena observed” and the “gastric or duodenal lesion” value [7] was “no sign of any gastric or duodenal lesion”. For the same molecule, the “No. of ulcerated animals/No. of treated animals” value ([1]; 400 mg/kg oral) was 0/10, the “No. of ulcerated animals/No. of treated animals” value ([1]; 800 mg/kg oral) was 1/10 and the “% Increase in the painful reaction time relative to the controls” value ([8]; 30 min.) was 22%. For the same molecule, the “% Increase in the painful reaction time relative to the controls” value ([8]; 60 min.) was 32%, the “% Increase in the painful reaction time relative to the controls” value ([8]; 90 min.) was 36% and the “% Increase in the painful reaction time relative to the controls” value ([8]; 120 min.) was 48%. The “% Increase in the painful reaction time relative to the controls” value ([8]; 150 min.) was 51%, the LD50 at 168 h ([9]; ip, 95% reliability limits in brackets) was 734 mg/kg and the LD50 at 168 h ([9]; oral) was > 2000 mg/kg. The LD50 at 168 h ([10]; ip) was 410 mg/kg, the LD50 at 168 h ([10]; oral) was 902 mg/kg and the MIC [11] was 3.15 mg/mL (≈ 11.2 mM). For the same molecule, the “condition of the rats” value [12] was “always excellent”, the “significant changes in general condition and weight” value [12] was “neither were there significant changes in general condition and weight” and the MIC [13] was 16 mg/mL (≈ 56.7 mM). The MIC [14] was 4.3 mg/mL (≈ 15.2 mM), the “Average of diameters, treated animals” value ([15]; 0 + 1 hour after kaolin (time of first AF1 dose)) was 6.9 mm and the “Average of diameters, treated animals” value ([15]; day 0 (baseline, before AF1)) was 5.8 mm. For the same molecule, the “% change in tibiotarsal joint diameter relative to controls” value [15, 16] was -11.1%, the “Average of diameters, treated animals” value [15, 16] was 8.8 mm and the “% change in tibiotarsal joint diameter relative to controls” value [15, 17] was -14.7%. For the same molecule, the “Average of diameters, treated animals” value [15, 17] was 8.7 mm, the “% change in tibiotarsal joint diameter relative to controls” value [15, 18] was -26.6% and the “Average of diameters, treated animals” value [15, 18] was 8.0 mm. For the same molecule, the “% change in tibiotarsal joint diameter relative to controls” value [15, 19] was -23.3%, the “Average of diameters, treated animals” value [15, 19] was 7.9 mm and the “% change in tibiotarsal joint diameter relative to controls” value [15, 20] was -25.7%. For the same molecule, the “Average of diameters, treated animals” value [15, 20] was 7.5 mm.

`COc1ccccc1O` [Guaiacol, reference compound] showed an MIC [2] of 33 mg/mL (≈ 266 mM), an MIC [5] of 33 mg/mL (≈ 266 mM) and an MIC [11] of 33 mg/mL (≈ 266 mM). The MIC [13] was 33 mg/mL (≈ 266 mM) and the MIC [14] was 16.6 mg/mL (≈ 134 mM).

With `CCCCC1C(=O)N(c2ccccc2)N(c2ccc(O)cc2)C1=O` (stereo not shown) [Tanderil, reference compound] the “Percentage edema inhibition relative to the controls” value ([3]; 25 mg/kg oral, 4 hours) was 58%, the “Percentage edema inhibition relative to the controls” value ([3]; 25 mg/kg oral, 6 hours) was 68% and the “Percentage edema inhibition relative to the controls” value ([3]; 50 mg/kg oral, 4 hours) was 56%. For the same molecule, the “Percentage edema inhibition relative to the controls” value ([3]; 50 mg/kg oral, 6 hours) was 78%, the “% Increase in the painful reaction time relative to the controls” value ([8]; 30 min.) was 11% and the “% Increase in the painful reaction time relative to the controls” value ([8]; 60 min.) was 14%. The “% Increase in the painful reaction time relative to the controls” value ([8]; 90 min.) was 15%, the “% Increase in the painful reaction time relative to the controls” value ([8]; 120 min.) was 20% and the “% Increase in the painful reaction time relative to the controls” value ([8]; 150 min.) was 21%.
